PubChem BioAssay AID1963964 (Molecular Pharmacology Branch, DTP, NCI, 2024)

Tested on: 997726-040-R-J2-PDC tumor spheroids, viability
Assay: Anticancer human tumor 997726-040-R-J2-PDC patient-derived squamous cell lung carcinoma cell line growth inhibition [PI3K]
Conditions: spheroids with HUVEC and MSC; for IC50: curve of first compound; for viability, T/C: stronger effect = lower value
Method in brief: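 Three cell types, namely tumor cells, endothelial cells and mesenchymal stem cells, formed each spheroid. Combinations with four PI3K inhibitors were screened at clinically achievable concentrations decreasing by half-log, and spheroid viability was recorded.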

[1] = second compound 0.0316 µM, first compound 0.0316 µM
[2] = second compound 0.0316 µM, first compound 0.1 µM
[3] = second compound 0.1 µM, first compound 0.0316 µM
[4] = second compound 0.1 µM, first compound 0.1 µM
[5] = second compound 0.316 µM, first compound 0.0316 µM
[6] = second compound 0.316 µM, first compound 0.1 µM
[7] = second compound 1 µM, first compound 0.0316 µM
[8] = second compound 1 µM, first compound 0.1 µM
[9] = second compound 3.16 µM, first compound 0.0316 µM
[10] = second compound 3.16 µM, first compound 0.1 µM
[11] = second compound 10 µM, first compound 0.0316 µM
[12] = second compound 10 µM, first compound 0.1 µM
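Further: spheroids exposed to compounds for seven days before readout.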

Structure (SMILES): CC(=O)c1c(C)c2cnc(Nc3ccc(N4CCNCC4)cn3)nc2n(C2CCCC2)c1=O + Cc1nc(NC(=O)N2CCCC2C(N)=O)sc1-c1ccnc(C(C)(C)C(F)(F)F)c1
- IC50 (second compound 0.0316 µM): > 100 nM
- IC50 (second compound 0.1 µM): 58.7 nM
- IC50 (second compound 0.316 µM): 19.7 nM
- IC50 (second compound 1 µM): < 0.316 nM
- IC50 (second compound 3.16 µM): < 0.316 nM
- IC50 (second compound 10 µM): < 0.316 nM
- viability, T/C (second compound 0.0316 µM, first compound 0.000316 µM): 94.4%
- viability, T/C (second compound 0.0316 µM, first compound 0.001 µM): 90.6%
- viability, T/C (second compound 0.0316 µM, first compound 0.00316 µM): 83.3%
- viability, T/C (second compound 0.0316 µM, first compound 0.01 µM): 72.9%
- viability, T/C [1]: 75.5%
- viability, T/C [2]: 51.9%
- viability, T/C (second compound 0.1 µM, first compound 0.000316 µM): 81.5%
- viability, T/C (second compound 0.1 µM, first compound 0.001 µM): 74.8%
- viability, T/C (second compound 0.1 µM, first compound 0.00316 µM): 71.9%
- viability, T/C (second compound 0.1 µM, first compound 0.01 µM): 65.2%
- viability, T/C [3]: 59.5%
- viability, T/C [4]: 43.1%
- viability, T/C (second compound 0.316 µM, first compound 0.000316 µM): 53.4%
- viability, T/C (second compound 0.316 µM, first compound 0.001 µM): 59%
- viability, T/C (second compound 0.316 µM, first compound 0.00316 µM): 52.9%
- viability, T/C (second compound 0.316 µM, first compound 0.01 µM): 55.7%
- viability, T/C [5]: 46.4%
- viability, T/C [6]: 34.8%
- viability, T/C (second compound 1 µM, first compound 0.000316 µM): 41.9%
- viability, T/C (second compound 1 µM, first compound 0.001 µM): 44.1%
- viability, T/C (second compound 1 µM, first compound 0.00316 µM): 40.1%
- viability, T/C (second compound 1 µM, first compound 0.01 µM): 35.5%
- viability, T/C [7]: 29.1%
- viability, T/C [8]: 28.4%
- viability, T/C (second compound 3.16 µM, first compound 0.000316 µM): 29.6%
- viability, T/C (second compound 3.16 µM, first compound 0.001 µM): 30.5%
- viability, T/C (second compound 3.16 µM, first compound 0.00316 µM): 26.2%
- viability, T/C (second compound 3.16 µM, first compound 0.01 µM): 27.7%
- viability, T/C [9]: 27.2%
- viability, T/C [10]: 18.6%
- viability, T/C (second compound 10 µM, first compound 0.000316 µM): 19.2%
- viability, T/C (second compound 10 µM, first compound 0.001 µM): 15.7%
- viability, T/C (second compound 10 µM, first compound 0.00316 µM): 13.4%
- viability, T/C (second compound 10 µM, first compound 0.01 µM): 14.9%
- viability, T/C [11]: 11.8%
- viability, T/C [12]: 10.5%

Structure (SMILES): CNC(=O)c1ccc(N2C(=S)N(c3ccc(C#N)c(C(F)(F)F)c3)C(=O)C2(C)C)cc1F + Cc1nc(NC(=O)N2CCCC2C(N)=O)sc1-c1ccnc(C(C)(C)C(F)(F)F)c1
- IC50 (second compound 0.0316 µM): > 10000 nM
- IC50 (second compound 0.1 µM): > 10000 nM
- IC50 (second compound 0.316 µM): > 10000 nM
- IC50 (second compound 1 µM): < 31.6 nM
- IC50 (second compound 3.16 µM): < 31.6 nM
- IC50 (second compound 10 µM): < 31.6 nM
- viability, T/C [1]: 74.4%
- viability, T/C [2]: 82.2%
- viability, T/C (second compound 0.0316 µM, first compound 0.316 µM): 80.9%
- viability, T/C (second compound 0.0316 µM, first compound 1 µM): 89.3%
- viability, T/C (second compound 0.0316 µM, first compound 3.16 µM): 81.9%
- viability, T/C (second compound 0.0316 µM, first compound 10 µM): 78.8%
- viability, T/C [3]: 74.5%
- viability, T/C [4]: 81.3%
- viability, T/C (second compound 0.1 µM, first compound 0.316 µM): 73.5%
- viability, T/C (second compound 0.1 µM, first compound 1 µM): 69.7%
- viability, T/C (second compound 0.1 µM, first compound 3.16 µM): 70.5%
- viability, T/C (second compound 0.1 µM, first compound 10 µM): 71.1%
- viability, T/C [5]: 51.3%
- viability, T/C [6]: 65%
- viability, T/C (second compound 0.316 µM, first compound 0.316 µM): 54.5%
- viability, T/C (second compound 0.316 µM, first compound 1 µM): 57.9%
- viability, T/C (second compound 0.316 µM, first compound 3.16 µM): 48.9%
- viability, T/C (second compound 0.316 µM, first compound 10 µM): 54.6%
- viability, T/C [7]: 41.7%
- viability, T/C [8]: 44.2%
- viability, T/C (second compound 1 µM, first compound 0.316 µM): 37.5%
- viability, T/C (second compound 1 µM, first compound 1 µM): 38.2%
- viability, T/C (second compound 1 µM, first compound 3.16 µM): 39.9%
- viability, T/C (second compound 1 µM, first compound 10 µM): 39%
- viability, T/C [9]: 32.7%
- viability, T/C [10]: 29.3%
- viability, T/C (second compound 3.16 µM, first compound 0.316 µM): 26.9%
- viability, T/C (second compound 3.16 µM, first compound 1 µM): 29.5%
- viability, T/C (second compound 3.16 µM, first compound 3.16 µM): 30.4%
- viability, T/C (second compound 3.16 µM, first compound 10 µM): 25.5%
- viability, T/C [11]: 16.1%
- viability, T/C [12]: 16.9%
- viability, T/C (second compound 10 µM, first compound 0.316 µM): 12.6%
- viability, T/C (second compound 10 µM, first compound 1 µM): 13.2%
- viability, T/C (second compound 10 µM, first compound 3.16 µM): 11.9%
- viability, T/C (second compound 10 µM, first compound 10 µM): 9.07%
